According to ChEMBL document CHEMBL1148074, “Thalifaberidine, a cytotoxic aporphine-benzylisoquinoline alkaloid from Thalictrum faberi” (J Nat Prod, 1994):
Values after ≈ are worked out from the molar mass of the structure shown. Active and inactive are the calls of the source. The calls are words filed in the database; no cut-off is given here.

Legend:
[1] = system: Plasmodium falciparum; assay: Antimalarial activity against chloroquine-resistant Plasmodium falciparum W2 infected human erythrocytes after 24 hrs by [3H]hypoxanthine uptake; format: functional; conditions: read-out: ED50 (the source's name)
[2] = system: Plasmodium falciparum; assay: Antimalarial activity against chloroquine-sensitive Plasmodium falciparum D6 infected human erythrocytes after 24 hrs by [3H]hypoxanthine uptake; format: functional; conditions: read-out: ED50 (the source's name)
[3] = Selectivity index, ratio of ED50 for human KB cells to ED50 for chloroquine-resistant Plasmodium falciparum W2; format: toxicity, cell-based; conditions: read-out: Selectivity Index
[4] = Selectivity index, ratio of ED50 for human KB cells to ED50 for chloroquine-sensitive Plasmodium falciparum D6; format: toxicity, cell-based; conditions: read-out: Selectivity Index
[5] = system: A-431; assay: Cytotoxicity against human A431 cells after 3 days by SRB assay; format: functional; conditions: A-431, 72 h, read-out: ED50 (the source's name)
[6] = system: Col2; assay: Cytotoxicity against human Col2 cells after 3 days by SRB assay; format: functional; conditions: Col2, 72 h, read-out: ED50 (the source's name)
[7] = system: P388; assay: Cytotoxicity against mouse P388 cells after 3 days by SRB assay; format: functional; conditions: P388, 72 h, read-out: ED50 (the source's name)
[8] = system: HT-1080; assay: Cytotoxicity against human HT1080 cells after 3 days by SRB assay; format: functional; conditions: HT-1080, 72 h, read-out: ED50 (the source's name)
[9] = system: Lu1; assay: Cytotoxicity against human Lu1 cells after 3 days by SRB assay; format: functional; conditions: Lu1, 72 h, read-out: ED50 (the source's name)
[10] = system: ZR-75-1; assay: Cytotoxicity against human ZR-75-1 cells after 3 days by SRB assay; format: functional; conditions: ZR-75-1, 72 h, read-out: ED50 (the source's name)
[11] = system: KB; assay: Cytotoxicity against human KB cells after 3 days by SRB assay; format: functional; conditions: 72 h, read-out: ED50 (the source's name)
[12] = Cytotoxicity against human KBVIN cells in presence of 1 ug/ml vinblastine after 3 days by SRB assay; format: functional; conditions: 72 h, read-out: ED50 (the source's name)
[13] = Cytotoxicity against human KBVIN cells after 3 days by SRB assay; format: functional; conditions: 72 h, read-out: ED50 (the source's name)
[14] = system: LNCaP; assay: Cytotoxicity against human LNCAP cells after 3 days by SRB assay; format: functional; conditions: 72 h, read-out: ED50 (the source's name)
[15] = Cytotoxicity against human U373 cells after 3 days by SRB assay; format: functional, U-373MG ATCC; conditions: U373 MG, 72 h, read-out: ED50 (the source's name)
[16] = Cytotoxicity against human BCA1 cells after 3 days by SRB assay; format: functional; conditions: BCA1, 72 h, read-out: ED50 (the source's name)
[17] = target: Human immunodeficiency virus type 1 reverse transcriptase (Human immunodeficiency virus 1) (UniProt Q72547); assay: Inhibition of HIV1 reverse transcriptase

C[C@@H]1CC[C@H]2[C@@H](C)C(=O)O[C@@H]3O[C@@]4(C)CC[C@@H]1[C@]32OO4 [ARTEMISININ]
EC50 [1]: 0.0004 µg/mL (≈ 0.00142 µM) | EC50 [2]: 0.0011 µg/mL (≈ 0.0039 µM) | selectivity ratio [3]: > 50000 | selectivity ratio [4]: > 1820

CCN(CC)CCCC(C)Nc1ccnc2cc(Cl)ccc12 (centres undefined) [CHLOROQUINE]
EC50 [2]: 0.0035 µg/mL (≈ 0.0109 µM)

OC(c1cc(C(F)(F)F)nc2c(C(F)(F)F)cccc12)C1CCCCN1 (centres undefined) [MEFLOQUINE]
EC50 [1]: 0.0019 µg/mL (≈ 0.00502 µM) | EC50 [2]: 0.0089 µg/mL (≈ 0.0235 µM) | selectivity ratio [3]: 1840 | selectivity ratio [4]: 393

C=C[C@H]1CN2CC[C@H]1C[C@H]2[C@H](O)c1ccnc2ccc(OC)cc12 [QUININE]
EC50 [1]: 0.0592 µg/mL (≈ 0.182 µM) | EC50 [2]: 0.0208 µg/mL (≈ 0.0641 µM) | selectivity ratio [3]: > 340 | selectivity ratio [4]: > 960

COc1cc2c(cc1O)CCN(C)[C@H]2Cc1ccc(Oc2c(O)c(OC)cc3c2C[C@H]2c4c(c(OC)c(OC)c(OC)c4-3)CCN2C)cc1 [THALIFABERIDINE]
EC50 [5]: 6.7 µg/mL (≈ 10 µM) | EC50 [1]: 0.122 µg/mL (≈ 0.182 µM) | EC50 [6]: 3.2 µg/mL (≈ 4.78 µM) | EC50 [2]: 0.88 µg/mL (≈ 1.32 µM) | EC50 [7]: 0.6 µg/mL (≈ 0.897 µM) | EC50 [8]: 3.1 µg/mL (≈ 4.64 µM) | EC50 [9]: 5.4 µg/mL (≈ 8.07 µM) | EC50 [10]: 1.5 µg/mL (≈ 2.24 µM) | EC50 [11]: 5.7 µg/mL (≈ 8.52 µM) | EC50 [12]: 17.7 µg/mL | EC50 [13]: 7.8 µg/mL (≈ 11.7 µM) | selectivity ratio [3]: 47 | EC50 [14]: 3.7 µg/mL (≈ 5.53 µM) | EC50 [15]: 1.5 µg/mL (≈ 2.24 µM) | EC50 [16]: 3.9 µg/mL (≈ 5.83 µM) | selectivity ratio [4]: 6.5 | Activity [17]: inactive

COc1cc2c(cc1OC)[C@H](Cc1ccc(Oc3c4c(cc(OC)c3OC)-c3c(OC)c(OC)c(OC)c5c3[C@H](C4)N(C)CC5)cc1)N(C)CC2 [THALIFABERINE]
EC50 [5]: 4.9 µg/mL (≈ 7.03 µM) | EC50 [1]: 0.441 µg/mL (≈ 0.633 µM) | EC50 [6]: 1.6 µg/mL (≈ 2.3 µM) | EC50 [2]: 5.09 µg/mL (≈ 7.3 µM) | EC50 [7]: 1.3 µg/mL (≈ 1.87 µM) | EC50 [8]: 2.6 µg/mL (≈ 3.73 µM) | EC50 [9]: 16.3 µg/mL (≈ 23.4 µM) | EC50 [10]: 3.7 µg/mL (≈ 5.31 µM) | EC50 [11]: 15.5 µg/mL (≈ 22.2 µM) | EC50 [12]: 4.6 µg/mL | EC50 [13]: 1.2 µg/mL (≈ 1.72 µM) | selectivity ratio [3]: 35 | EC50 [14]: 5.7 µg/mL (≈ 8.18 µM) | EC50 [15]: 4.1 µg/mL (≈ 5.88 µM) | EC50 [16]: 5.4 µg/mL (≈ 7.75 µM) | selectivity ratio [4]: 3 | Activity [17]: inactive

COc1cc2c(c(O)c1OC)CCN(C)[C@H]2Cc1ccc(Oc2c3c(cc(OC)c2OC)-c2c(OC)c(OC)c(O)c4c2[C@H](C3)N(C)CC4)cc1 [THALIFASINE]
EC50 [5]: 8.2 µg/mL (≈ 11.7 µM) | EC50 [1]: 0.0493 µg/mL (≈ 0.0705 µM) | EC50 [6]: 2.1 µg/mL (≈ 3.01 µM) | EC50 [2]: 0.238 µg/mL (≈ 0.341 µM) | EC50 [7]: 1.2 µg/mL (≈ 1.72 µM) | EC50 [8]: 1.3 µg/mL (≈ 1.86 µM) | EC50 [9]: 2 µg/mL (≈ 2.86 µM) | EC50 [10]: 1.2 µg/mL (≈ 1.72 µM) | EC50 [11]: 4.6 µg/mL (≈ 6.58 µM) | EC50 [12]: 5.7 µg/mL | EC50 [13]: 1.6 µg/mL (≈ 2.29 µM) | selectivity ratio [3]: 93 | EC50 [14]: 3.3 µg/mL (≈ 4.72 µM) | EC50 [15]: 2.2 µg/mL (≈ 3.15 µM) | EC50 [16]: 2.4 µg/mL (≈ 3.43 µM) | selectivity ratio [4]: 19 | Activity [17]: inactive
